Source: article PMC9612231, “Antileishmanial Anthracene Endoperoxides: Efficacy In Vitro, Mechanisms and Structure-Activity Relationships” (Molecules, 2022)

What was measured:
[1] = test system: Leishmania tarentolae promastigotes (LtP); test: LtP viability combination assay with NAC or PIH; type: cell-based; conditions: 2 × 10^6 LtP/mL; for Change of IC50 value in LtP by addition of PIH: 50 µM PIH; for Change of IC50 value in LtP by addition of NAC: 2 mM NAC
Description: Based on the findings from chemical test systems, we studied the actual activation of these EP compounds in LtP. For this purpose, we used the established viability assays for Leishmania and studied how IC50 values were changed by the presence of the typical radical scavenger N-acetyl cysteine (NAC) or the iron chelator for low molecular iron pyridoxal isonicotinoyl hydrazine (PIH). We expressed the changes of the IC50 values in the presence of these additional compounds in percent, referring to the original IC50 values in LtP set to 100% (Figure 8). […] Likewise, in the presence of the iron chelator PIH, the IC50 values of most EP in LtP shifted to higher values.
Assay medium of YEM (20.7 g/L yeast extract powder, 1.2 g/L K2HPO4, 0.2 g/L KH2PO4, 2.9 g/L glucose, pH 7.4) and PBS (1:1, v/v), 25,000 U/L penicillin, 25 mg/L streptomycin, and 7.7 µM hemin was prepared. Aliquots of 200 µL of this medium and 2 × 10^6 LtP/mL (where required) were distributed in non-treated cell culture 96-well plates. Compounds (dissolved in DMSO) were added with starting concentrations of 25 µM (Pen) or 200 µM (AcEP/Ac), and then, serial dilutions were carried out resulting in a set of concentrations (25, 5, 1, 0.2, 0.04, and 0.008 µM) or (200, 40, 8, 1.6, 0.32, and 0.064 µM). For each compound concentration, at least triplicates on each plate were performed. After incubation of the plates at 27 °C for 48 h, 50 µL of resazurin solution (final concentration in wells 20 µM) was added to each well and after 4 h of incubation, the fluorescence was measured at 560 nm excitation and 590 nm emission using a plate reader (Perkin Elmer EnSpire, Rodgau, Germany) (adapted from). Combination assays for viability in the presence of PIH and NAC were performed the same way. However, one half of the plate was filled with YEM/PBS with 2 × 10^6 LtP/mL, and the other half of the plate was filled with YEM/PBS with 2 × 10^6 LtP/mL supplemented with non-toxic concentrations of PIH (50 µM) or NAC (2 mM), so that for each plate, two compounds were tested with and without the presence of PIH or NAC. All tests were repeated at least on four different weeks of cultivation.

[2] = Formation of the xylenol orange/Fe3+ complex by EP; conditions: for Log10 (Formation Rate) / XO/Fe^3+ Formation Rate: AcEP and 250 µM FeSO4 in methanol/H2O (9:1); for XO/Fe^3+ Formation Rate: mean ± SD of 3 experiments
Description: In subsequent experiments, we explored the activation of EP and possible cellular consequences of these compounds in Leishmania. In a chemical system, we tested how fast EP react with iron (II) and, therefore, lead to the activation of these compounds. Resulting iron (III) was detected as complex with xylenol orange (XO, Figure 3). The reaction rate of the EP stretched across two magnitudes of orders (Table 3). On the first view, there is no direct link between the activation rates and the efficiency of the compounds against Leishmania.
XO (125 µM) and butylated hydroxytoluene (4 mM) were dissolved in MeOH/H2O (9:1). FeSO4 (25 mM) in 2.5 M H2SO4 was prepared immediately before use (final concentration of 250 µM FeSO4 in the color reagent). An aliquot of 100 µL EP solution (final concentration of 100 µM) was transferred into a disposable cuvette (BRAND, Wertheim, Germany), and 1 mL of the color reagent was added. The EP that reacted slower were incubated for 0, 30, 60, and 90 min at 25 °C. The EP that reacted faster were measured every 5 s over 5 min. At these time points, the OD difference of the sample at 560 nm and 650 nm was determined using a MS1501 UV–VIS diode array spectrophotometer (Shimadzu, Kyoto, Japan). As reference, a mixture of MeOH/H2O (9:1) was used. The slope of the reaction rate was calculated using an extinction coefficient of 1.5 × 10^4 M^−1 cm^−1.

[3] = UV detection of cycloreversion (thermal decomposition) of AcEP; type: physicochemical; conditions: 40 µM AcEP in EtOH at 70 °C over up to 23 h, UV spectra
Method: To determine EP decomposition, we recorded at first the UV spectra of the parent Ac compound and then observed the spectral changes of the corresponding EP during incubation in EtOH (Figure 7). […] Spectral changes in these compounds rather indicate other decomposition pathways.
A sample of the corresponding Ac in 1.5 mL EtOH (final concentrations 2, 8, or 10 µM) was transferred into a quartz cuvette and measured by an UV–VIS spectrometer (U3300, Hitachi, Tokyo, Japan) at 70 °C. Afterwards, an aliquot of the corresponding AcEP dissolved in EtOH (final concentration 40 µM) was pipetted into a cuvette, and its UV spectra were measured at 70 °C in a time interval of 1 h over a period of 23 h. After measurements, the re-appearance of the Ac absorption pattern was verified.

[4] = test system: LtP; test: Superoxide radical formation in LtP by the EPR/CMH method; type: cell-based, Leishmania tarentolae; conditions: 20 min at 25 °C; for Superoxide formation in LtP (CMH oxidation), in words: 100 µM compound
Description: Since mitochondrial inhibition can be triggered by secondary damage in the respective cells, for example, by superoxide radicals, we studied the formation of superoxide radicals in LtP by the EPR/hydroxyl-3-methoxycarbonyl-2,2,5,5-tetramethylpyrrolidine hydrochloride (CMH) method (Figure 10). […] In the presence of antimycin A (AA, an inhibitor of mitochondrial complex III), the superoxide radical formation in LtP is increased by more than 150% (Figure 11).
An aliquot of the LtP cell culture equivalent to 5 × 10^8 LtP was transferred into a 1.5 mL Eppendorf tube and was centrifuged (Hettich Universal 16, 20 °C, 2000× g, 10 min). After removal of the supernatant, the cell pellet was re-suspended in 1 mL PBS and centrifuged again and the supernatant discarded. The cell pellet was re-suspended in 1 mL of PBS with 15 mM glucose (PBS-gluc), giving a final cell density of 5 × 10^8 LtP/mL. AcEP/Ac compounds were added (100 µM final concentration) to aliquots of 50 µL of this cell suspension in 1.5 mL Eppendorf tubes and incubated for 20 min at 25 °C. Then, DFO (100 μM final concentration), DTPA (25 μM final concentration), and detection agent CMH (400 µM final concentration) were added to the aliquots before measurement. Samples containing only buffer (PBS-gluc) or only LtP (in PBS-gluc) were used as negative controls, while samples containing 20 μM AA were used as positive control. An aliquot of 17 µL suspension was aspirated into a PTFE tube (ø 0.7 mm). The tube was folded into a quartz tube (ø 4 mm outer diameter) and then transferred to the MD5 resonator of the EPR spectrometer. The measurement was started using following parameters: microwave frequency 9.682 GHz; microwave power 20 mW, modulation frequency 100 kHz; modulation amplitude 1 G; time constant 0.82 s; center field 3448 G; sweep width 100 G; scan time 84 s; attenuation 70 dB; separate scans 5. Based on a calibration curve with carboxy proxyl (CP^●) changes of the peak-to-peak intensity of CM^● spectra were converted to CMH oxidation rates (superoxide radical generation).

With `C[n+]1ccc(C23OOC(c4cc[n+](C)cc4)(c4ccccc42)c2ccccc23)cc1` [Compound 1062MeAcEP] the “Change of IC50 value in LtP by addition of PIH” value (shortened to “Change of IC50 value … of PIH”) [1] was “increase of IC50 values”, the “Change of IC50 value in LtP by addition of NAC” value (“Change of IC50 value … of NAC” for short) [1] was “higher IC50 values in the presence of the thiol NAC” and the “Log10 (Formation Rate)” value [2] was 2.78. For the same molecule, the “XO/Fe^3+ Formation Rate” value [2] was 609 ± 27 nmol/min.
In the case of `c1ccc(C23OOC(c4ccccc4)(c4ccccc42)c2ccccc23)cc1` [DPAcEP], the “Change of IC50 value … of PIH” value [1] is reported as “increase of IC50 values”, the “Change of IC50 value … of NAC” value [1] is reported as “did not respond, but rather displayed even lower IC50 values” and the “Cycloreversion to the parent Ac compound (thermal decomposition)” value (“Cycloreversion to the parent Ac compound” below) [3] is reported as “clear reformation of the parent Ac compound over time”. For the same molecule, the “Log10 (Formation Rate)” value [2] was 2.83 and the “XO/Fe^3+ Formation Rate” value [2] was 677 ± 86 nmol/min.
For `CC(C)(C)c1ccc2c(c1)C1(c3cccnc3)OOC2(c2cccnc2)c2ccccc21` (stereo not drawn) [mPyBuAcEP], the “Change of IC50 value … of PIH” value [1] was “increase of IC50 values”, the “Change of IC50 value … of NAC” value [1] was “higher IC50 values in the presence of the thiol NAC” and the “Increase of superoxide formation in LtP” value ([4]; 100 µM Ac/AcEP) was “more than 70%”. The “Superoxide formation in LtP (CMH oxidation), in words” value [4] was “most effective in boosting the superoxide production”, the “Cycloreversion to the parent Ac compound” value [3] was “clear reformation of the parent Ac compound over time” and the “Log10 (Formation Rate)” value [2] was 2.86. The “XO/Fe^3+ Formation Rate” value [2] was 731 ± 111 nmol/min and the “Activation by iron (II), in words” value ([2]; XO assay) was “rather slow activation by iron (II)”.
With `CC(C)(C)c1ccc2c(-c3cccnc3)c3ccccc3c(-c3cccnc3)c2c1` [mPyBuAc] the “Superoxide formation in LtP (CMH oxidation), in words” value [4] was “most effective in boosting the superoxide production”.
In the case of `COc1ccccc1C12OOC(c3ccccc3OC)(c3ccccc31)c1ccccc12` [oOMeAcEP], the “Change of IC50 value … of PIH” value [1] is reported as “increase of IC50 values”, the “Change of IC50 value … of NAC” value [1] is reported as “did not respond, but rather displayed even lower IC50 values” and the “Log10 (Formation Rate)” value [2] is reported as 2.73. For the same molecule, the “XO/Fe^3+ Formation Rate” value [2] was 545 ± 17 nmol/min.
With `c1ccc(C23OOC(c4ccccn4)(c4ccccc42)c2ccccc23)nc1` [oPyAcEP] the “Change of IC50 value … of PIH” value [1] was “no increase was observed”, the “Change of IC50 value … of NAC” value [1] was “higher IC50 values in the presence of the thiol NAC” and the “Cycloreversion to the parent Ac compound” value [3] was “did not undergo conversion to the parent Ac compound”. For the same molecule, the “Log10 (Formation Rate)” value [2] was 4.91 and the “XO/Fe^3+ Formation Rate” value [2] was 81,700 ± 11,921 nmol/min.
